Like-named read-outs stand apart in the source and are kept apart here.

The text below walks through data of patent US8945864B2, “Method of determining 1,5-anhydroglucitol, and reagent composition for determining 1,5-anhydroglucitol” (Ikeda Food Research Co., Ltd., priority 2006, dated 2015).

Assay [1] deals with T1, sorbose dehydrogenase (Sinorhizobium meliloti, UniProt Q92YU0). Description: Substrate specificity of sorbose dehydrogenase (relative reactivity, DCIP method). Type of assay: biochemical, Sinorhizobium sp. 97507. On the procedure: One mL of a 0.1 M potassium phosphate buffer, pH 7.0, 1.0 mL of 1.0 M L-sorbose, 0.14 mL of 3 mM 2,6-dichlorophenol indophenol (DCIP), 0.2 mL of 3 mM 1-methoxy-5-methylphenazinium methyl sulfate, and 0.61 mL of water were added to a 3 mL quartz cell, and the quartz cell was set to a spectrophotometer equipped with a thermostat cell holder, and incubated at 37° C. for ten minutes. Then, 0.05 mL of the enzyme solution was added to the quartz cell, and changes in absorbance of DCIP at 600 nm (AABS600/min) was measured at 37° C. As the molar extinction coefficient of DCIP at pH 7.0 is known as 16.3 mM^−1, and the amount of enzyme that reduced 1 μmol of DCIP for one minute is defined as one unit. Following the definition, the concentration of enzyme activity was calculated based on the following equation. enzyme activity (units/mL)=(−ΔABS600/min×3.0×dilution rate)/(16.3×1.0×0.05)
Measurement conditions in the above “method of measuring enzyme activity” were suitably modified as necessary, and the optimal pH, pH stability, optimal temperature, temperature stability, substrate specificity, Km value, total molecular weight, subunit molecular weight, inhibitor, and product of the enzyme reaction were identified. The properties of the enzyme were evaluated in accordance with the following tests.
[…]. The results are shown as a relative value of each substrate with reference to the value of activity of L-sorbose as a standard.

Assay [2] addresses T1, sorbose dehydrogenase. Description: Inhibitor test: additive in the reaction solution for the activity measurement. As to conditions: for activity at 1000 µM: read-out: Relative activity (%). Type of assay: biochemical, Sinorhizobium sp. 97507.
[3] abbreviates: substrate 333 mM (lactose 167 mM).
[4] abbreviates: substrate final concentration 333 mM, […].
[5] abbreviates: additive final concentration 1.0 mM, control without additive = 100%.
Setting [6] is: substrate final concentration 333 mM, relative to activity of L-sorbose as standard (100).

T1 sequence (Q92YU0 entry or part of it): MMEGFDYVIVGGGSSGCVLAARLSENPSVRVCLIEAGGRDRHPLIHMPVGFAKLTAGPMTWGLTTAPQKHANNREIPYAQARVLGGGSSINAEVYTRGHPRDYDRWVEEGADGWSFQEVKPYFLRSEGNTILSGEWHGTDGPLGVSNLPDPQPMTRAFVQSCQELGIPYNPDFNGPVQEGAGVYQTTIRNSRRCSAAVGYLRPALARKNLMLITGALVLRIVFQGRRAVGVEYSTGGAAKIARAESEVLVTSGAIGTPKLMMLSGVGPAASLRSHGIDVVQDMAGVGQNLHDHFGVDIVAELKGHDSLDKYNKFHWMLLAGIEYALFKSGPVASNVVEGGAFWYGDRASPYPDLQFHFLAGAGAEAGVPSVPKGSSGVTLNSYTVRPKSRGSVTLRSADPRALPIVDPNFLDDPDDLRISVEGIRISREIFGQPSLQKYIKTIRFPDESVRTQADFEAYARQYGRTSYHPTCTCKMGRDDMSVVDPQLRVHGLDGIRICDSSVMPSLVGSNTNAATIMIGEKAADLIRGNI

For the compound `CCCCO` [1-butanol], at sorbose dehydrogenase [1], the “Effect of the sorbose dehydrogenase on the substrate (in words)” value (from here on “Effect of the sorbose dehydrogenase”) was “weak effect” and the “Relative activity (%)” value was 1.29%. Consider `OC[C@H]1O[C@H](O[C@H]2[C@H](O)[C@@H](O)[C@H](O)O[C@@H]2CO)[C@H](O)[C@@H](O)[C@@H]1O` [Maltose], for which the “Effect of the sorbose dehydrogenase” value at sorbose dehydrogenase [1] (setting [3]) is “little effect”. Also, the “Relative activity (%)” value on sorbose dehydrogenase [1] (setting [4]) is on record as 0%. Turning to `O=C(CO)[C@@H](O)[C@H](O)[C@H](O)CO` [D-(−)-fructose], the “Effect of the sorbose dehydrogenase” value at sorbose dehydrogenase [1] (setting [3]) is “little effect”. In addition, at sorbose dehydrogenase [1] (setting [4]), the “Relative activity (%)” value stood at 0%.

Consider CoCl2, for which the “Relative activity (%)” value on sorbose dehydrogenase [2] turned out to be 86%. Turning to `OC[C@@H](O)[C@@H](O)[C@H](O)[C@@H](O)CO` [D-sorbitol], at sorbose dehydrogenase [1] (setting [3]), the “Effect of the sorbose dehydrogenase” value is “little effect”. On to `O=C[C@H](O)[C@@H](O)[C@@H](O)[C@H](O)CO` [D-(+)-galactose], for which the “Effect of the sorbose dehydrogenase” value on sorbose dehydrogenase [1] (setting [3]) is given as “weak effect”. Besides, the “Relative activity (%)” value at sorbose dehydrogenase [1] (setting [4]) came out at 1.69%. Turning to `[Cl][Cu][Cl]` [CuCl2], the “Relative activity (%)” value at sorbose dehydrogenase [2] (setting [5]) is 0%. In addition, the “Inhibition of the sorbose dehydrogenase (in words)” value on sorbose dehydrogenase [2] (heavy metal ions, 1 mM) was “remarkably inhibited”. Take `O=C[C@H](O)[C@H](O)[C@H](O)CO` [D-ribose]: the “Effect of the sorbose dehydrogenase” value on sorbose dehydrogenase [1] (setting [3]) was “little effect”. With `[N-]=[N+]=[N-].[Na+]` [NaN3], the “Relative activity (%)” value on sorbose dehydrogenase [2] is given as 115%. Take `[Cl-].[Cl-].[Zn+2]` [ZnCl2]: the “Relative activity (%)” value on sorbose dehydrogenase [2] (setting [5]) came out at 98%. As for `[Ca+2].[Cl-].[Cl-]` [CaCl2], the “Relative activity (%)” value at sorbose dehydrogenase [2] was determined as 92%. On to `O=C([O-])CN(CCN(CC(=O)O)CC(=O)O)CC(=O)[O-].[Na+].[Na+]` [EDTA-2Na], for which, at sorbose dehydrogenase [2], the “Relative activity (%)” value came to 102%. `[Cl][Ni][Cl]` [NiCl2]: the “Relative activity (%)” value at sorbose dehydrogenase [2] was 80%. On to `CC(C)O` [2-propanol], for which the “Effect of the sorbose dehydrogenase” value on sorbose dehydrogenase [1] (setting [3]) was “little effect”. In addition, the “Relative activity (%)” value at sorbose dehydrogenase [1] (setting [6]) was 0.39%. On to `O=C(O)CC(O)(CC(=O)O)C(=O)O` [Citric acid], for which the activity at 1000 µM on sorbose dehydrogenase [2] is 86%. Consider `OC[C@H]1O[C@H](O[C@H]2O[C@H](CO)[C@@H](O)[C@H](O)[C@H]2O)[C@H](O)[C@@H](O)[C@@H]1O` [D-trehalose], for which the “Effect of the sorbose dehydrogenase” value at sorbose dehydrogenase [1] (setting [3]) is “little effect”. In the case of `CCN1C(=O)C=CC1=O` [N-ethylmaleimide], the activity at 1000 µM on sorbose dehydrogenase [2] (setting [5]) worked out at 88%. Regarding `O=S(=O)(O)c1cc(O)c(O)c(S(=O)(=O)O)c1` [Tiron], the activity at 1000 µM at sorbose dehydrogenase [2] (setting [5]) came to 89%. Take `OC[C@@H](O)[C@@H](O)CO` [meso-erythritol]: the “Effect of the sorbose dehydrogenase” value at sorbose dehydrogenase [1] (setting [3]) is recorded as “little effect”.

Consider `OC[C@@H](O)[C@H](O)[C@@H](O)CO` [Xylitol], for which, at sorbose dehydrogenase [1] (setting [3]), the “Effect of the sorbose dehydrogenase” value was “little effect”. The “Relative activity (%)” value at sorbose dehydrogenase [1] (setting [6]) is 0.89%. As for `O=C[C@H](O)[C@@H](O)[C@H](O)[C@H](O)CO` [D-(+)-glucose], the “Effect of the sorbose dehydrogenase” value at sorbose dehydrogenase [1] (setting [3]) was “weak effect”. On sorbose dehydrogenase [1] (setting [4]), the “Relative activity (%)” value was determined as 1.22%. `[Cl][Pb][Cl]` [PbCl2]: the “Relative activity (%)” value at sorbose dehydrogenase [2] turned out to be 83%. For `O=C(O)C(O)C(O)C(=O)O` (racemic) [DL-tartaric acid], the “Relative activity (%)” value on sorbose dehydrogenase [2] (setting [5]) was 86%. For `OC[C@H]1O[C@H](OC[C@H]2O[C@H](O[C@]3(CO)O[C@H](CO)[C@@H](O)[C@@H]3O)[C@H](O)[C@@H](O)[C@@H]2O)[C@H](O)[C@@H](O)[C@H]1O` [D-raffinose], the “Effect of the sorbose dehydrogenase” value at sorbose dehydrogenase [1] (setting [3]) is listed as “little effect”.

Take `[Cl-].[Cl-].[Mg+2]` [MgCl2]: the “Relative activity (%)” value at sorbose dehydrogenase [2] is on record as 93%. With `c1ccc(-c2ccccn2)nc1` [2,2′-bipyridine], at sorbose dehydrogenase [2] (setting [5]), the activity at 1000 µM worked out at 88%. Turning to `O=C[C@@H](O)[C@@H](O)[C@H](O)[C@H](O)CO` [D-(+)-mannose], the “Effect of the sorbose dehydrogenase” value at sorbose dehydrogenase [1] (setting [3]) is on record as “little effect”. Also, the “Relative activity (%)” value at sorbose dehydrogenase [1] (setting [4]) came to 0.15%.

Regarding `CCC(C)O` (stereo not drawn) [2-butanol], at sorbose dehydrogenase [1], the “Effect of the sorbose dehydrogenase” value was “little effect”. On to `[Cl-].[Li+]` [LiCl], for which the “Relative activity (%)” value at sorbose dehydrogenase [2] (setting [5]) is 98%. On to `[Ba+2].[Cl-].[Cl-]` [BaCl2], for which the “Relative activity (%)” value at sorbose dehydrogenase [2] (setting [5]) is reported as 80%. Regarding `CC(O)CO` (stereo not drawn) [propylene glycol], the “Effect of the sorbose dehydrogenase” value at sorbose dehydrogenase [1] (setting [3]) was “little effect”. For the compound `O=C(O)CI` [Iodoacetic acid], the activity at 1000 µM on sorbose dehydrogenase [2] was determined as 83%.

Consider `[Cl-].[Na+]` [NaCl], for which, on sorbose dehydrogenase [2], the “Relative activity (%)” value came to 85%.
